Values joined by “and” are separate entries in the source; they are usually repeats but may differ in a detail not shown here. Equal values may be shown once. Read-outs that look alike come from different tables or passages of the source.
Assay: Mouse brain penetration pharmacokinetics study (plasma and brain)
Type: in vivo, ICR male mice
Protocol: IV. Mouse Brain Penetration Pharmacokinetics Study
The test compounds used in this study were the compounds described in the specific examples of the present disclosure.
ICR male mice, N=3/group; sourced from Zhejiang Vital River Laboratory Animal Technology Co., Ltd.
3. Drug Preparation and Administration
Single oral (PO) administration to ICR mice: Compounds were dissolved in dimethyl sulfoxide, added to polyethylene glycol 400 and sterile water, and then adjusted to a clear solution with a small amount of 1 mol/L hydrochloric acid. After overnight fasting, the mice were orally gavaged with a dose of 30 mg/kg or 100 mg/kg.
Blood Collection and Processing: Mice were anesthetized with 5% isoflurane for 3-4 minutes until loss of consciousness. Whole blood (500 µL per time point) was collected via cardiac puncture using dipotassium EDTA (K2EDTA) as the anticoagulant. Plasma was separated by centrifugation ([…] for 5 minutes at 4°C). […] The samples were stored at -80°C.
Brain Tissue Collection: Following complete exsanguination, the thoracic cavity was opened with scissors. The right atrium was incised, and a needle was inserted into the left ventricle. Transcardial perfusion was performed with physiological saline (approximately 10 mL). Upon completion of perfusion, the skull was opened, and brain tissues were harvested and stored at -80°C.
Sample Preparation: A 30 µL plasma aliquot (consisting of 10 µL study sample and 20 µL blank plasma) was mixed with 200 µL of ice-cold acetonitrile containing an internal standard (IS). The mixture was vortexed for 30 seconds and then centrifuged at 4,000 g/min for 20 minutes. A 100 µL aliquot of the supernatant was transferred to a 96-well plate and mixed with 200 µL of ultrapure water. After vortexing for 30 seconds, a volume of 5 µL or 10 µL was injected into the LC-MS/MS system for analysis.
Brain Homogenate Preparation: Brain tissue samples were weighed and homogenized in phosphate-buffered saline (PBS) at a 1:4 ratio (tissue weight [g] to PBS volume [mL]). A 30 µL aliquot of brain homogenate (consisting of 10 µL study sample and 20 µL blank brain homogenate) was mixed with 200 µL of ice-cold acetonitrile containing an internal standard. The mixture was vortexed for 30 seconds and centrifuged at 4,000 g/min for 20 minutes. A 100 µL aliquot of the supernatant was transferred to a 96-well plate and mixed with 200 µL of ultrapure water. After vortexing for 30 seconds, a volume of 2 µL or 10 µL was injected into the LC-MS/MS system for analysis. Table 9: PK data

[1] = ICR male mice, PO(30mg/kg), sampling time 4 h, individual animals, 30 mg/kg
[2] = ICR male mice, PO(30mg/kg), sampling time 8 h, individual animals, 30 mg/kg
[3] = ICR male mice, PO(30mg/kg), sampling time 12 h, individual animals, 30 mg/kg
[4] = ICR male mice, PO(30mg/kg), sampling time 24 h, individual animals, 30 mg/kg
[5] = ICR male mice, PO(30mg/kg), sampling time 36 h, individual animals, 30 mg/kg
[6] = ICR male mice, PO(100mg/kg), sampling time 2 h, individual animals, 100 mg/kg
[7] = ICR male mice, PO(100mg/kg), sampling time 4 h, individual animals, 100 mg/kg
[8] = ICR male mice, PO(100mg/kg), sampling time 8 h, individual animals, 100 mg/kg
[9] = ICR male mice, PO(100mg/kg), sampling time 24 h, individual animals, 100 mg/kg

With `CN(C(=O)c1ccc2nc(N)c3cncn3c2c1)[C@@H]1COc2cc(C(F)(F)F)ccc21` [Example 107, (S)-4-amino-N-methy 1-N-(6-(trifluoromethy 1)-2,3-dihydrobenzofuran-3-yl)imidazo[1,5-a]quinoxaline-8-carboxamide] the B/P ratio [1] was 0.122 and 0.152, the Brain concentration [1] was 885 ng/g and 1290 ng/g and 1780 ng/g and the Plasma concentration [1] was 10600 ng/mL and 11700 ng/mL. For the same compound, the B/P ratio [2] was 0.227 and 0.305, the Brain concentration [2] was 1700 ng/g and 2080 ng/g and the Plasma concentration [2] was 7500 ng/mL and 6810 ng/mL. The B/P ratio [3] was 0.435 and 0.320, the Brain concentration [3] was 1040 ng/g and 855 ng/g and the Plasma concentration [3] was 2390 ng/mL and 2670 ng/mL. The B/P ratio [4] was 0.186 and 0.225, the Brain concentration [4] was 47.6 ng/g and 65.0 ng/g and 142 ng/g and the Plasma concentration [4] was 201 ng/mL and 349 ng/mL and 631 ng/mL. For the same compound, the B/P ratio [5] was 0.653 and 0.705, the Brain concentration [5] was 25.0 ng/g and 19.1 ng/g and the Plasma concentration [5] was 38.3 ng/mL and 27.1 ng/mL. The B/P ratio [6] was 0.114 and 0.195, the Brain concentration [6] was 6650 ng/g and 4740 ng/g and 10800 ng/g and the Plasma concentration [6] was 41500 ng/mL and 55400 ng/mL. The B/P ratio [7] was 0.143 and 0.168, the Brain concentration [7] was 4560 ng/g and 6100 ng/g and the Plasma concentration [7] was 32000 ng/mL and 36400 ng/mL. The B/P ratio [8] was 0.151 and 0.142, the Brain concentration [8] was 1455 ng/g and 2480 ng/g and the Plasma concentration [8] was 9620 ng/mL and 17500 ng/mL. The B/P ratio [9] was 0.278 and 0.222, the Brain concentration [9] was 356 ng/g and 434 ng/g and the Plasma concentration [9] was 1280 ng/mL and 1950 ng/mL. The Kp at 4 h (male, ICR, mouse, brain and plasma, po, 30 mg/kg, ICR male mice, PO(30mg/kg), sampling time 4 h, individual animals, read-out: B/P ratio) was 0.118, the Kp at 8 h (male, ICR, mouse, brain and plasma, po, 30 mg/kg, ICR male mice, PO(30mg/kg), sampling time 8 h, individual animals, read-out: B/P ratio) was 0.286 and the Kp at 12 h (male, ICR, mouse, brain and plasma, po, 30 mg/kg, ICR male mice, PO(30mg/kg), sampling time 12 h, individual animals, read-out: B/P ratio) was 0.365. For the same compound, the Kp at 24 h (male, ICR, mouse, brain and plasma, po, 30 mg/kg, ICR male mice, PO(30mg/kg), sampling time 24 h, individual animals, read-out: B/P ratio) was 0.237, the Kp at 36 h (male, ICR, mouse, brain and plasma, po, 30 mg/kg, ICR male mice, PO(30mg/kg), sampling time 36 h, individual animals, read-out: B/P ratio) was 0.605 and the Kp at 2 h (male, ICR, mouse, brain and plasma, po, 100 mg/kg, ICR male mice, PO(100mg/kg), sampling time 2 h, individual animals, read-out: B/P ratio) was 0.171. For the same compound, the Kp at 4 h (male, ICR, mouse, brain and plasma, po, 100 mg/kg, ICR male mice, PO(100mg/kg), sampling time 4 h, individual animals, read-out: B/P ratio) was 0.168, the Kp at 8 h (male, ICR, mouse, brain and plasma, po, 100 mg/kg, ICR male mice, PO(100mg/kg), sampling time 8 h, individual animals, read-out: B/P ratio) was 0.2 and the Kp at 24 h (male, ICR, mouse, brain and plasma, po, 100 mg/kg, ICR male mice, PO(100mg/kg), sampling time 24 h, individual animals, read-out: B/P ratio) was 0.321. For the same compound, the concentration at 8 h (male, ICR, mouse, brain, po, 30 mg/kg, ICR male mice, PO(30mg/kg), sampling time 8 h, individual animals, read-out: Brain concentration) was 1820 ng/g, the concentration at 12 h (male, ICR, mouse, brain, po, 30 mg/kg, ICR male mice, PO(30mg/kg), sampling time 12 h, individual animals, read-out: Brain concentration) was 1000 ng/g and the concentration at 36 h (male, ICR, mouse, brain, po, 30 mg/kg, ICR male mice, PO(30mg/kg), sampling time 36 h, individual animals, read-out: Brain concentration) was 30 ng/g. The concentration at 4 h (male, ICR, mouse, brain, po, 100 mg/kg, ICR male mice, PO(100mg/kg), sampling time 4 h, individual animals, read-out: Brain concentration) was 5550 ng/g, the concentration at 8 h (male, ICR, mouse, brain, po, 100 mg/kg, ICR male mice, PO(100mg/kg), sampling time 8 h, individual animals, read-out: Brain concentration) was 2460 ng/g and the concentration at 24 h (male, ICR, mouse, brain, po, 100 mg/kg, ICR male mice, PO(100mg/kg), sampling time 24 h, individual animals, read-out: Brain concentration) was 427 ng/g. The concentration at 4 h (male, ICR, mouse, plasma, po, 30 mg/kg, ICR male mice, PO(30mg/kg), sampling time 4 h, individual animals, read-out: Plasma concentration) was 7520 ng/mL, the concentration at 8 h (male, ICR, mouse, plasma, po, 30 mg/kg, ICR male mice, PO(30mg/kg), sampling time 8 h, individual animals, read-out: Plasma concentration) was 6370 ng/mL and the concentration at 12 h (male, ICR, mouse, plasma, po, 30 mg/kg, ICR male mice, PO(30mg/kg), sampling time 12 h, individual animals, read-out: Plasma concentration) was 2750 ng/mL. It also gave a concentration at 36 h (male, ICR, mouse, plasma, po, 30 mg/kg, ICR male mice, PO(30mg/kg), sampling time 36 h, individual animals, read-out: Plasma concentration) of 49.6 ng/mL, a concentration at 2 h (male, ICR, mouse, plasma, po, 100 mg/kg, ICR male mice, PO(100mg/kg), sampling time 2 h, individual animals) of 38800 ng/mL and a concentration at 4 h (male, ICR, mouse, plasma, po, 100 mg/kg, ICR male mice, PO(100mg/kg), sampling time 4 h, individual animals, read-out: Plasma concentration) of 33100 ng/mL. For the same compound, the concentration at 8 h (male, ICR, mouse, plasma, po, 100 mg/kg, ICR male mice, PO(100mg/kg), sampling time 8 h, individual animals, read-out: Plasma concentration) was 12300 ng/mL, the concentration at 24 h (male, ICR, mouse, plasma, po, 100 mg/kg, ICR male mice, PO(100mg/kg), sampling time 24 h, individual animals, read-out: Plasma concentration) was 1330 ng/mL and the brain penetration (rodents (ICR mice), oral 30 mg/kg or 100 mg/kg, result in words) was “favorable brain penetration”.
